These results are taken from ChEMBL document CHEMBL5113469, “Synthesis and biological evaluation of a tumor-selective degrader of PARP1” (Bioorg Med Chem, 2022).

The subject of data set [1] is MDA-MB-231. The data set is described as follows: Antiproliferative activity against human MDA-MB-231 cells assessed as cell growth inhibition incubated for 5 days by MTT assay. The class given is functional, cell-based. To be noted: MDA-MB-231, 120 h.
Data set [2] deals with MDA-MB-468. The data set is described as follows: Antiproliferative activity against human MDA-MB-468 cells assessed as cell growth inhibition incubated for 5 days by MTT assay. The class given is functional, cell-based. The note with it: MDA-MB-468, 120 h.
In data set [3] the test system is MDA-MB-436. Description: Antiproliferative activity against human MDA-MB-436 cells assessed as cell growth inhibition incubated for 5 days by MTT assay. The class given is functional, cell-based. To be noted: MDA-MB-436, 120 h.
Data set [4] relates to CAPAN-1. Description: Antiproliferative activity against human CAPAN-1 cells assessed as cell growth inhibition incubated for 5 days by MTT assay. It counts as functional, cell-based. To be noted: CAPAN-1, 120 h.
The target in data set [5] is T1, Protein cereblon/Poly [ADP-ribose] polymerase 1 (Homo sapiens, UniProt P09874+Q96SW2). The data set is described as follows: PROTAC activity at CRBN/PARP1 in human MDA-MB-231 cells assessed as induction of PARP1 degradation at 1 uM incubated for 24 hrs by western blot analysis. The class given is cell-based.
Target sequence in this assay (P09874 2-1014 limits assumed): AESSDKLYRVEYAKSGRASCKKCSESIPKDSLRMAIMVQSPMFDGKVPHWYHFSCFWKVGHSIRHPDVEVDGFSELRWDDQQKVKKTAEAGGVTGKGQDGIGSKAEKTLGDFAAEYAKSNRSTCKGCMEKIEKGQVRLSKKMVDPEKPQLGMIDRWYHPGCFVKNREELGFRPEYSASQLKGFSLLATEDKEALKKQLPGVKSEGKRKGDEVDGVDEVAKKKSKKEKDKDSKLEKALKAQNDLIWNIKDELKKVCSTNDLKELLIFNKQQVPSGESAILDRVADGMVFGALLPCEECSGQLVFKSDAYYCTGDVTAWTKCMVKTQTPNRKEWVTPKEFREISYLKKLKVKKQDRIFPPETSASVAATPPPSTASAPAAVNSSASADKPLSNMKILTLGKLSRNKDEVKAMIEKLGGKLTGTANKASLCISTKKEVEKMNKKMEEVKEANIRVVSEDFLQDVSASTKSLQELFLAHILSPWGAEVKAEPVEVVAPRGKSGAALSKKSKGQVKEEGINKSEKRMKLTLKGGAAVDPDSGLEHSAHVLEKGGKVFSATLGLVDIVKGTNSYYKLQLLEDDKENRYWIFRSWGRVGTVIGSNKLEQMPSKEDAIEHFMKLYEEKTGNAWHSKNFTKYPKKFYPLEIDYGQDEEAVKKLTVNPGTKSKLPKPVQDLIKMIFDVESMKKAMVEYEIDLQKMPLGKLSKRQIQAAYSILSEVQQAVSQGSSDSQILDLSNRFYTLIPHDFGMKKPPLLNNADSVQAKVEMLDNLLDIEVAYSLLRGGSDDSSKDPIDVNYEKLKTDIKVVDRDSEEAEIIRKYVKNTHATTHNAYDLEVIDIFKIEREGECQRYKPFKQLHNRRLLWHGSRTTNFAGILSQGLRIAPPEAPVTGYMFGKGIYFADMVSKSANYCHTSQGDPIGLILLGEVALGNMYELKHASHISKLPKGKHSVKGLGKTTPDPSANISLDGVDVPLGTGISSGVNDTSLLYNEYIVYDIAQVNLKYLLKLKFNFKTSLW
Target sequence in this assay (Q96SW2 whole entry partner): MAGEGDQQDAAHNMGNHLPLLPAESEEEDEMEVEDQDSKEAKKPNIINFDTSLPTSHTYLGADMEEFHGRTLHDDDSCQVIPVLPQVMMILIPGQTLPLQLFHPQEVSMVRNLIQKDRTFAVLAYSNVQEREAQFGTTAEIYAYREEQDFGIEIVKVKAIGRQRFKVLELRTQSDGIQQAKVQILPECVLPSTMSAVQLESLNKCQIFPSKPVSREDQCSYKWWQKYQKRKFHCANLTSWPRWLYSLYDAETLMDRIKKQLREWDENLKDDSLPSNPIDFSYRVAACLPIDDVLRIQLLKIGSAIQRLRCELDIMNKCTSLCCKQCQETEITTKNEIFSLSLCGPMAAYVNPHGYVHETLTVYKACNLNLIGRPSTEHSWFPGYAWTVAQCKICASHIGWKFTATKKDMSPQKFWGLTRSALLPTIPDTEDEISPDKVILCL
The test system of data set [6] is MDA-MB-231. Description: Induction of cell cycle arrest in human MDA-MB-231 cells assessed as accumulation at G2/M phase at 5 uM incubated for 24 hrs by propidium iodide staining based flow cytometry analysis (reference value: 27.14 %). It counts as functional.
Data set [7] has as its system MV4-11. The data set is described as follows: Antiproliferative activity against human MV4-11 cells assessed as cell growth inhibition incubated for 5 days by MTT assay. It counts as functional, cell-based. To be noted: time 5.0 day.
For data set [8], the target named is T1, Protein cereblon/Poly [ADP-ribose] polymerase 1. The data set is described as follows: PROTAC activity at CRBN/PARP1 in human MDA-MB-231 cells assessed as induction of PARP1 degradation at 1 uM incubated for 4 hrs by western blot analysis. The class given is cell-based.
Target sequence in this assay (P09874 2-1014 limits assumed): as the sequence (P09874 2-1014 limits assumed) above
Target sequence in this assay (Q96SW2 whole entry partner): as the sequence (Q96SW2 whole entry partner) above
Data set [9] relates to MDA-MB-231. Description: Induction of cell cycle arrest in human MDA-MB-231 cells assessed as accumulation at G2/M phase at 2.5 uM incubated for 24 hrs by propidium iodide staining based flow cytometry analysis (reference value: 27.14 %). It counts as functional.
The test system of data set [10] is HepG2. The data set is described as follows: Antiproliferative activity against human HepG2 cells assessed as cell growth inhibition incubated for 5 days by MTT assay. It counts as functional, cell-based. The note with it: time 5.0 day.
Data set [11] concerns MDA-MB-231. Description: Induction of cell cycle arrest in human MDA-MB-231 cells assessed as accumulation at S phase at 0.625 uM incubated for 24 hrs by propidium iodide staining based flow cytometry analysis (reference value: 37.88 %). It counts as functional.
Data set [12] deals with MDA-MB-231. The data set is described as follows: Induction of cell cycle arrest in human MDA-MB-231 cells assessed as accumulation at G2/M phase at 0.625 uM incubated for 24 hrs by propidium iodide staining based flow cytometry analysis (reference value: 27.14 %). It counts as functional.
In data set [13] the test system is MDA-MB-231. Description: Induction of cell morphological changes in human MDA-MB-231 at 1 uM incubated for 24 hrs by DAPI and Rhodamine staining based immunofluorescence assay. It counts as functional.
For data set [14], the system named is MDA-MB-231. The data set is described as follows: Induction of cell cycle arrest in human MDA-MB-231 cells assessed as accumulation at G2/M phase at 0.312 uM incubated for 24 hrs by propidium iodide staining based flow cytometry analysis (reference value: 27.14 %). It counts as functional.
In data set [15] the test system is L02. Description: Antiproliferative activity against human L02 cells assessed as cell growth inhibition incubated for 5 days by MTT assay. It counts as toxicity, cell-based. The note with it: l02, 120 h, time 5 day.
The subject of data set [16] is MDA-MB-231. Description: Induction of cell cycle arrest in human MDA-MB-231 cells assessed as accumulation at G2/M phase at 1.25 uM incubated for 24 hrs by propidium iodide staining based flow cytometry analysis (reference value: 27.14 %). The class given is functional.
The subject of data set [17] is MDA-MB-231. The data set is described as follows: Induction of cell cycle arrest in human MDA-MB-231 cells assessed as accumulation at S phase at 2.5 uM incubated for 24 hrs by propidium iodide staining based flow cytometry analysis (reference value: 37.88 %). It counts as functional.
Data set [18] deals with MDA-MB-231. The data set is described as follows: Induction of cell cycle arrest in human MDA-MB-231 cells assessed as accumulation at G0/G1 phase at 0.312 uM incubated for 24 hrs by propidium iodide staining based flow cytometry analysis (reference value: 32.62 %). It counts as functional.
Data set [19] concerns NCI-H3122. The data set is described as follows: Antiproliferative activity against human NCI-H3122 cells assessed as cell growth inhibition incubated for 5 days by MTT assay. The class given is functional, cell-based. To be noted: time 5.0 day.
In data set [20] the test system is MDA-MB-231. Description: Induction of cell cycle arrest in human MDA-MB-231 cells assessed as accumulation at G0/G1 phase at 5 uM incubated for 24 hrs by propidium iodide staining based flow cytometry analysis (reference value: 32.62 %). It counts as functional.
Data set [21] deals with MDA-MB-231. The data set is described as follows: Induction of cell cycle arrest in human MDA-MB-231 cells assessed as accumulation at G0/G1 phase at 2.5 uM incubated for 24 hrs by propidium iodide staining based flow cytometry analysis (reference value: 32.62 %). It counts as functional.
Data set [22] concerns the target T1, Protein cereblon/Poly [ADP-ribose] polymerase 1. Description: PROTAC activity at CRBN/PARP1 in human L02 cells assessed as induction of PARP1 degradation incubated for 24 hrs by western blot analysis. The class given is cell-based.
Target sequence in this assay (P09874 whole entry): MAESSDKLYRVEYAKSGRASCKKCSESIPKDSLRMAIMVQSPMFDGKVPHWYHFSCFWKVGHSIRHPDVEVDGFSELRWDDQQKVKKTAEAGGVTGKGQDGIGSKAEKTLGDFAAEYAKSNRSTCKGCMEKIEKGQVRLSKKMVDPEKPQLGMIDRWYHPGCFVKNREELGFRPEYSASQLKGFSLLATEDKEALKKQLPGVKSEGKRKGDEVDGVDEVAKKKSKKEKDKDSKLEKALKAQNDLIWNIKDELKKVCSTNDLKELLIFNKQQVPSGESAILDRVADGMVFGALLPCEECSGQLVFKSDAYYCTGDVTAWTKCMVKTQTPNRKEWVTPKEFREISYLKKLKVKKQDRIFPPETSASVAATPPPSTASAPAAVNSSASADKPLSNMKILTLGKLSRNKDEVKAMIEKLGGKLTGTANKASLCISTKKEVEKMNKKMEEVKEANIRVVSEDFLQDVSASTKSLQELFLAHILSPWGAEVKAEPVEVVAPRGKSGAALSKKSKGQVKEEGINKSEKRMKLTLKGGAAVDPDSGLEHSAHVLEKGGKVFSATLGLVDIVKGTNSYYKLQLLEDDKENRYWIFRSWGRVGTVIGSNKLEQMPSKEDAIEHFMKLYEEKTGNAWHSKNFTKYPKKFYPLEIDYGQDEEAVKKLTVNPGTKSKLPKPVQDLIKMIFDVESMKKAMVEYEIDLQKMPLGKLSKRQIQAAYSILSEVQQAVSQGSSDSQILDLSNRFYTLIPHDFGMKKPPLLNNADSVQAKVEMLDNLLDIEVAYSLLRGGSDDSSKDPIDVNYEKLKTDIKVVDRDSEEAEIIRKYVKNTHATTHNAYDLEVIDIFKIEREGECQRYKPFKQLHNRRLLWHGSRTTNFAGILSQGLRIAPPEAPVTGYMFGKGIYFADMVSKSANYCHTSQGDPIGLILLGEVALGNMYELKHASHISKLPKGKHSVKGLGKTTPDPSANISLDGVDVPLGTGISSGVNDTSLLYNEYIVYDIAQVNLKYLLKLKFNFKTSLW
Target sequence in this assay (Q96SW2 whole entry): as the sequence (Q96SW2 whole entry partner) above
Data set [23] has the same target. The data set is described as follows: PROTAC activity at CRBN/PARP1 in human MDA-MB-231 cells assessed as induction of PARP1 degradation incubated for 24 hrs by western blot analysis. The class given is cell-based.
Target sequence in this assay (P09874 whole entry): as the sequence (P09874 whole entry) above
Target sequence in this assay (Q96SW2 whole entry): as the sequence (Q96SW2 whole entry partner) above
Data set [24] relates to HeLa. Description: Antiproliferative activity against human HeLa cells assessed as cell growth inhibition incubated for 5 days by MTT assay. It counts as functional, cell-based. The note with it: time 5.0 day.
Data set [25] has as its system MDA-MB-231. The data set is described as follows: Induction of cell cycle arrest in human MDA-MB-231 cells assessed as accumulation at S phase at 0.312 uM incubated for 24 hrs by propidium iodide staining based flow cytometry analysis (reference value: 37.88 %). It counts as functional.
In data set [26] the target is Poly [ADP-ribose] polymerase 1 (Homo sapiens, UniProt P09874). The data set is described as follows: Binding affinity to PARP1 (unknown origin).
Chain of Poly [ADP-ribose] polymerase 1 (P09874 whole entry): as the sequence (P09874 whole entry) above
Data set [27] deals with MDA-MB-231. The data set is described as follows: Induction of cell cycle arrest in human MDA-MB-231 cells assessed as accumulation at G0/G1 phase at 0.625 uM incubated for 24 hrs by propidium iodide staining based flow cytometry analysis (reference value: 32.62 %). It counts as functional.
The test system of data set [28] is MDA-MB-231. The data set is described as follows: Induction of cell cycle arrest in human MDA-MB-231 cells assessed as accumulation at G0/G1 phase at 1.25 uM incubated for 24 hrs by propidium iodide staining based flow cytometry analysis (reference value: 32.62 %). The class given is functional.
The subject of data set [29] is MDA-MB-231. The data set is described as follows: Induction of cell cycle arrest in human MDA-MB-231 cells assessed as accumulation at S phase at 1.25 uM incubated for 24 hrs by propidium iodide staining based flow cytometry analysis (reference value: 37.88 %). It counts as functional.
Data set [30] deals with MDA-MB-231. The data set is described as follows: Induction of cell cycle arrest in human MDA-MB-231 cells assessed as accumulation at S phase at 5 uM incubated for 24 hrs by propidium iodide staining based flow cytometry analysis (reference value: 37.88 %). The class given is functional.
Data set [31] concerns MDA-MB-231. The data set is described as follows: Antiproliferative activity against human MDA-MB-231 cells assessed as colony growth inhibition at 0.625 to 10 uM incubated for 14 days by MTT assay. The class given is functional, cell-based. The note with it: dose 0.625-10 µM, time 14.0 day, DDE = dose-dependent effect.
Data set [32] concerns NCI-H2228. Description: Antiproliferative activity against human NCI-H2228 cells assessed as cell growth inhibition incubated for 5 days by MTT assay. It counts as functional, cell-based. The note with it: time 5.0 day.
Data set [33] concerns SW620/5-FU. Description: Antiproliferative activity against human SW620/5-FU cells assessed as cell growth inhibition incubated for 5 days by MTT assay. The class given is functional, cell-based. The note with it: time 5.0 day.

Each structure is given as a SMILES string. Active and inactive are the calls of the source. The calls are words filed in the database; no cut-off is given here.

For `O=C1CCC(N2C(=O)c3cccc(NC(=O)CNCCCC(=O)N4CCN(C(=O)c5cc(Cc6n[nH]c(=O)c7ccccc67)ccc5F)CC4)c3C2=O)C(=O)N1` (centres undefined), the concentration for half-maximal inhibition (IC50) in data set [1] was greater than 20 µM; in [2], greater than 20 µM; in data set [3] it was 6.8 µM; in [4], 8.64 µM.
Consider `O=C1CCC(N2C(=O)c3cccc(NC(=O)CNCCCCCCCC(=O)N4CCN(C(=O)c5cc(Cc6n[nH]c(=O)c7ccccc67)ccc5F)CC4)c3C2=O)C(=O)N1` (centres undefined), for which the outcome in data set [5] was Active. The IC50 in data set [1] was found to be 10.6 µM; in data set [2], 7.75 µM; in data set [3], 0.29 µM; in [4] it was 0.65 µM.
In the case of `O=C1CCC(N2C(=O)c3cccc(NC(=O)CNCCCCCCCCCCCCC(=O)N4CCN(C(=O)c5cc(Cc6n[nH]c(=O)c7ccccc67)ccc5F)CC4)c3C2=O)C(=O)N1` (centres undefined), the IC50 came to 7.25 µM in data set [1], 5.03 µM in data set [2], 0.076 µM in data set [3] and 0.24 µM in data set [4].
In the same order, the values of `O=C1CCC(N2C(=O)c3cccc(NC(=O)CNCC(=O)N4CCN(C(=O)c5cc(Cc6n[nH]c(=O)c7ccccc67)ccc5F)CC4)c3C2=O)C(=O)N1` (centres undefined) are greater than 20 µM, greater than 20 µM, greater than 10 µM and greater than 10 µM.
In the case of `O=C1CCC(N2C(=O)c3cccc(NC(=O)CNCCCCCCCCCC(=O)N4CCN(C(=O)c5cc(Cc6n[nH]c(=O)c7ccccc67)ccc5F)CC4)c3C2=O)C(=O)N1` (centres undefined), the result in data set [5] was Active. Also, the IC50 in data set [1] is 5.37 µM; in data set [2], 4.35 µM; in data set [3], 0.13 µM; in [4], 0.22 µM.
Turning to `O=C1CCC(N2C(=O)c3cccc(NC(=O)CNCCCCCCCCCCC(=O)N4CCN(C(=O)c5cc(Cc6n[nH]c(=O)c7ccccc67)ccc5F)CC4)c3C2=O)C(=O)N1` (centres undefined), the Activity is 41.92% in [6]; 90% in data set [8]; 37.16% in data set [9]; 32.14% in [11]; 29.56% in data set [12]; 28.41% in data set [14]. In addition, the Activity entry is listed as “Toxic” in [15]; 35.58% in data set [16]; 30.55% in [17]; 37.11% in data set [18]; 25.81% in data set [20]; 32.48% in data set [21]. For the same compound, the Activity is 33.02% in [25]; 36.68% in [27]; 32.03% in data set [28]; 30.97% in data set [29]; 30.47% in data set [30]; “Dde” in data set [31]. The result in data set [7], in [10], in data set [5], in [13], in data set [19] and in data set [24] was Active. Further, the result in [32] and in data set [33] was Active. Moreover, the concentration for half-maximal inhibition (IC50) is 3.92 µM in data set [1]; 2.32 µM in data set [2]; 0.031 µM in data set [3]; 0.00295 µM in [26]; 0.077 µM in data set [4]. Also, the DC50 in data set [22] was 3.2 µM; in data set [23] it was 0.053 µM.
Consider `O=C1CCC(N2C(=O)c3cccc(NC(=O)CNCCC(=O)N4CCN(C(=O)c5cc(Cc6n[nH]c(=O)c7ccccc67)ccc5F)CC4)c3C2=O)C(=O)N1` (centres undefined), for which the 50% inhibitory concentration (IC50) in data set [1] was greater than 20 µM; in [2], greater than 20 µM; in data set [3], greater than 10 µM; in data set [4], greater than 10 µM.
